Results published in BindingDB's records for patent US20230271937 (Nuevolution, 2023).

Target: T1, Isoform 2 of Nuclear receptor ROR-gamma (RORgT) (Homo sapiens, UniProt P51449)
T1 sequence (P51449 whole entry): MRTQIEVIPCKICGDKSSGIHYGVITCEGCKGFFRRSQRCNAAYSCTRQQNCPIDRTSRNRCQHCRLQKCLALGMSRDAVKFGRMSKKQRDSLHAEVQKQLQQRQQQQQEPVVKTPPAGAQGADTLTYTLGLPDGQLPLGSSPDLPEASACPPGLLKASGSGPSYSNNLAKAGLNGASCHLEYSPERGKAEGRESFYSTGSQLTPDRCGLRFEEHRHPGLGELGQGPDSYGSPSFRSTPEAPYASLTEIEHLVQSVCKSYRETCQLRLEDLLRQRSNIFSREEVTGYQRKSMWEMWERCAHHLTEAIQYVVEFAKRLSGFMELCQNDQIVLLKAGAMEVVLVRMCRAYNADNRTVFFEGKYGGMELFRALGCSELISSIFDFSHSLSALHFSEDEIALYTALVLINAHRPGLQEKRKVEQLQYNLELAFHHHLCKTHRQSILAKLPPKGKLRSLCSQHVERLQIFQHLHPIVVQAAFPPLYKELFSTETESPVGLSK
Test: RORgamma Reporter Assay (Gal4)
Procedure: The HEK293 cell line is co-transfected transiently with two plasmids, one with the RORγ ligand-binding domain fused to galactose-responsive transcription factor (Gal4), and the other with the luciferase reporter gene and Gal binding sites (UAS). This construction allows to determine the RORγ activity in a cellular system through the measurement of luminescence. A suspension of RORγ reporter cells was dispensed into plates and cultured 2 h at 37° C. and 5% CO2. Media formulation consisted in DMEM/F-12 medium (Gibco) supplemented with 10% heat inactivated FBS (Sigma-Aldrich), non-essential aminoacids (Sigma-Aldrich), 2 mM Glutamax (Gibco) and 100 U/mL penicillin (Sigma-Aldrich). Dose-response curves with compounds were prepared in 100% DMSO and further diluted 100-fold in culture medium. […] The following formula was used: activity=100*[1−[x test compound/average vehicle] where the theoretical minimum reduction (0% reduction).

EC50: 0.7 µM
Compound: CN(Cc1cccc(C#N)c1)c1ncnc(NC[C@H]2CCN(CC(N)=O)C[C@@H]2O)c1F [US20230271937, Example F2-08]
